Data from EP4667464A1 (Cyrus Therapeutics Inc., priority 2023, dated 2024).
pIC50: −log10 of the molar value. Like-named read-outs stand apart in the source and are kept apart here.

Assays:
[1] = molecular target: T1, SOS1 (Homo sapiens, UniProt Q07889); assay: SOS-catalyzed nucleotide exchange assay (HTRF, SOS1-mediated GTP loading of KRAS G12D); assay type: biochemical
T1 construct: HIS-SOS1cat (160 nM; Cytoskeleton, US); His (N); purchased Cytoskeleton
T1 sequence (Q07889 564-1049 limits assumed): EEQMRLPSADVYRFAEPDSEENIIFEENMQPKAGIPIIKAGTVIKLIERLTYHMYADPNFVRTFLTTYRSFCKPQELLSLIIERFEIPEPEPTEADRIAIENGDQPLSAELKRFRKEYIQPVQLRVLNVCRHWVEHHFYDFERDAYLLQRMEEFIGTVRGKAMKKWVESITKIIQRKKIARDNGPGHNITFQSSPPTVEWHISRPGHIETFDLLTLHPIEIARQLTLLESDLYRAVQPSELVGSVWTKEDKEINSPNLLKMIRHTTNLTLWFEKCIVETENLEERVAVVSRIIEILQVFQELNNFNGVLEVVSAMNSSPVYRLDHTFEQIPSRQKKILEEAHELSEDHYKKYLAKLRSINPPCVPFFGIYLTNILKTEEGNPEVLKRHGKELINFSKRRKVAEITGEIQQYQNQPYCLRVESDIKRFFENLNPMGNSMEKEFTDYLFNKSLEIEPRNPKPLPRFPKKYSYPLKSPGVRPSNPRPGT

[2] = molecular target: T2, KRAS G12C::SOS1 (Homo sapiens, UniProt Q07889); assay: KRAS G12C::SOS1 protein-protein interaction (PPI) inhibition assay (HTRF); assay type: binding
T2 construct: purchased CISBIO 64KRASG12PEH
T2 sequence (Q07889 1-1333): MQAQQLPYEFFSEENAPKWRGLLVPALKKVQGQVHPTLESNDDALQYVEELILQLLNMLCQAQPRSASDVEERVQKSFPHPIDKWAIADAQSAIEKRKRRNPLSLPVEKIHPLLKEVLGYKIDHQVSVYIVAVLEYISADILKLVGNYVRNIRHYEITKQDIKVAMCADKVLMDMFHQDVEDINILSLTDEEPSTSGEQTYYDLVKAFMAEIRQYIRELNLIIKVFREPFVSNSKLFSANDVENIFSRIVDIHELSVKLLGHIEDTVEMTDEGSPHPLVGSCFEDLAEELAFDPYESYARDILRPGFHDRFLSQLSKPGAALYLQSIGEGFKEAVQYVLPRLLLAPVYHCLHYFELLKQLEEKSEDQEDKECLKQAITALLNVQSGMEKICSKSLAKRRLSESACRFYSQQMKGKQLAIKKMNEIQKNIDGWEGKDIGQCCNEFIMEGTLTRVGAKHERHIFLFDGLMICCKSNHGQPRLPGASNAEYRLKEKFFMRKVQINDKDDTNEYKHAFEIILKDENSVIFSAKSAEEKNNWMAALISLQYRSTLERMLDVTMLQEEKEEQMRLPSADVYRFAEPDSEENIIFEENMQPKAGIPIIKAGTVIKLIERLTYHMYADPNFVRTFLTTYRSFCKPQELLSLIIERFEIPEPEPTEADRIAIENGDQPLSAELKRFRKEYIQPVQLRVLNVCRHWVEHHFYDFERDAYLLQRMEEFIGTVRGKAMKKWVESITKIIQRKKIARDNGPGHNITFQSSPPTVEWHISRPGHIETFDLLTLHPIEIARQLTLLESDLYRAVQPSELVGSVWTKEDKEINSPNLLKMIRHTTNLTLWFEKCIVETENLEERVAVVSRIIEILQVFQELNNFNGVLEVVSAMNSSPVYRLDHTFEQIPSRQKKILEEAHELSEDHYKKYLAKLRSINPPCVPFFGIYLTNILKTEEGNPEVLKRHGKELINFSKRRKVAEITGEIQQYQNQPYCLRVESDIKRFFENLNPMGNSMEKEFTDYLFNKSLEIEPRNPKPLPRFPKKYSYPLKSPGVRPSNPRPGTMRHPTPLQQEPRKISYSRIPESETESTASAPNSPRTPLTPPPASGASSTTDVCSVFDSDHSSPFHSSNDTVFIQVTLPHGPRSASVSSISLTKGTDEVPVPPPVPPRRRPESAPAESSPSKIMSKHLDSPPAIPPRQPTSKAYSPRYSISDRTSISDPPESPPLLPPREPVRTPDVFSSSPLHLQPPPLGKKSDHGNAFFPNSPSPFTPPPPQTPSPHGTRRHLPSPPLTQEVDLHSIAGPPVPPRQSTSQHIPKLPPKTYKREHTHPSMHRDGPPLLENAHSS
Summary of the method: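 Compounds, at eight 3-fold dilutions from 3 µM, were mixed with GTP-loaded Tag1-KRAS G12C, Tag2-SOS1 and a terbium-cryptate donor plus XL665 acceptor antibody pair. After 2 h at room temperature, time-resolved FRET reported the KRAS–SOS1 interaction.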

[3] = tested on: lung cancer cell line NCI-H358 having the KRAS G12C variant; assay: Cancer cell growth inhibition, 3D spheroids (CellTiter-Glo 3D); assay type: cell-based; conditions: Homo sapiens, NCI-H358, 120 h, read-out: H358 cell viability
Procedure: Thereafter, the plate with the cells cultured was adapted to room temperature for 10 minutes, and then 50 µL of CellTiter-Glo® 3D Cell Viability Assay (PROMEGA, G9683) solution was dispensed, and reacted on a horizontal stirrer at a speed of 300 RPM for 30 minutes to induce the cell lysis. […] Thereafter, based on the measured values, the degree of cell growth in the well treated with each compound was calculated when the final cell density value of the well not treated with the test substance was set to 100%.

[4] = GST-KRAS G12D, HIS-SOS1cat, compound 128 pM to 10 µM; read-out: SOS-catalyzed nucleotide exchange assay
[5] = 8 concentrations from 3 µM, three replicates; read-out: KRAS G12C::SOS1 PPI
[6] = 3D spheroids, 0.002-10 µM, 5 days

| SMILES | pIC50 [1, 4] | pIC50 [2, 5] | pIC50 [3, 6] | pIC50 ([1]; read-out: SOS-catalyzed nucleotide exchange assay; GST-KRAS G12D, HIS-SOS1cat, compound 128 pM to 10 µM) | pIC50 ([2]; read-out: KRAS G12C::SOS1 PPI; 8 concentrations from 3 µM, three replicates) | pIC50 [3] |
| --- | --- | --- | --- | --- | --- | --- |
| C[C@@H](NC(=O)c1ccc(=O)n(-c2cncc(-c3ccnn3C)c2)n1)c1cccc(C(F)(F)F)c1F [Example 1-17, N-[(1R)-1-[2-fluoro-3-(trifluoromethyl)phenyl]ethyl]-1-[5-(2-methylpyrazol-3-yl)-3-pyridyl]-6-oxo-pyridazine-3-carboxamide] | 6.82 to 7.30 | < 6.82 | > 6.00 | – | – | – |
| C[C@@H](NC(=O)c1ccc(=O)n(-c2cnnc(-c3ccnn3C)c2)n1)c1cccc(C(F)(F)CO)c1F [Example 1-20, N-[(1R)-1-[3-(1,1-difluoro-2-hydroxy-ethyl)-2-fluoro-phenyl]ethyl]-1-[6-(2-methylpyrazol-3-yl)pyridazin-4-yl]-6-oxo-pyridazine-3-carboxamide] | 6.82 to 7.30 | < 6.82 | < 5.52 | – | – | – |
| Cc1ncc(-n2nc(C(=O)N[C@H](C)c3cccc(C(F)(F)F)c3F)ccc2=O)cc1-c1cnnn1C [Example 1-26, N-[(1R)-1-[2-fluoro-3-(trifluoromethyl)phenyl]ethyl]-1-[6-methyl-5-(3-methyltriazol-4-yl)-3-pyridyl]-6-oxo-pyridazine-3-carboxamide] | 6.82 to 7.30 | 6.82 to 7.30 | > 6.00 | – | – | – |
| Cc1ncc(-n2nc(C(=O)N[C@H](C)c3cccc(C(F)(F)CO)c3F)ccc2=O)cc1-c1cnnn1C [Example 1-29] | 6.82 to 7.30 | > 7.30 | > 6.00 | – | – | – |
| C[C@@H](NC(=O)c1ccc(=O)n(-c2cnnc(-c3cnnn3C)c2)n1)c1cccc(C(F)(F)CO)c1F [Example 1-37, N-{(1R)-1-[3-(1,1-difluoro-2-hydroxyethyl)-2-fluoro-phenyl]ethyl}-6'-(1-methyl-1H-1,2,3-triazol-5-yl)-6-oxo-6H-[1,4'-bipyridazine]-1,6-dihydro-3-carboxamide] | 6.82 to 7.30 | 6.82 to 7.30 | < 5.52 | – | – | – |
| C[C@@H](NC(=O)c1ccc(=O)n(-c2cnc(N3CCOCC3)c(-c3cnnn3C)c2)n1)c1cccc(C(F)(F)F)c1F [Example 1-46, N-{(R)-1-[2-fluoro-3-(trifluoromethyl)phenyl]ethyl}-1-[5-(1-methyl-1H-1,2,3-triazol-5-yl)-6-morpholino-3-pyridyl]-6-oxo-1,6-dihydropyridazine-3-carboxamide] | – | – | – | 6.82 to 7.30 | 6.82 to 7.30 | > 6.00 |
| CC(C)n1nncc1-c1cncc(-n2nc(C(=O)N[C@H](C)c3cccc(C(F)(F)CO)c3F)ccc2=O)c1 [Example 1-52, N-[(1R)-1-[3-(1,1-difluoro-2-hydroxy-ethyl)-2-fluoro-phenyl]ethyl]-1-[5-(1-isopropyl-1H-1,2,3-triazol-5-yl)-3-pyridyl]-6-oxo-pyridazine-3-carboxamide] | > 7.30 | 6.82 to 7.30 | > 6.00 | – | – | – |
| C[C@@H](NC(=O)c1ccc(=O)n(-c2cncc(-c3cnnn3C3CC3)c2)n1)c1cccc(C(F)(F)CO)c1F [Example 1-53, N-[(1R)-1-[3-(1,1-difluoro-2-hydroxy-ethyl)-2-fluoro-phenyl]ethyl]-1-[5-(1-cyclopropyl-1H-1,2,3-triazol-5-yl)-3-pyridyl]-6-oxo-pyridazine-3-carboxamide] | > 7.30 | > 7.30 | > 6.00 | – | – | – |

Further lines, with some results ahead:

| pIC50 [1, 4] | pIC50 [2, 5] | pIC50 [3, 6] | SMILES | pIC50 ([1]; read-out: SOS-catalyzed nucleotide exchange assay; GST-KRAS G12D, HIS-SOS1cat, compound 128 pM to 10 µM) | pIC50 ([2]; read-out: KRAS G12C::SOS1 PPI; 8 concentrations from 3 µM, three replicates) | pIC50 [3] |
| --- | --- | --- | --- | --- | --- | --- |
| > 7.30 | > 7.30 | > 6.00 | Cc1cc(C(=O)N[C@H](C)c2cccc(C(F)(F)CO)c2F)nn(-c2cncc(-c3cnnn3C)c2)c1=O [Example 1-23, N-[(1R)-1-[3-(1,1-difluoro-2-hydroxy-ethyl)-2-fluoro-phenyl]ethyl]-5-methyl-1-[5-(3-methyltriazol-4-yl)-3-pyridyl]-6-oxo-pyridazine-3-carboxamide] | – | – | – |
| > 7.30 | > 7.30 | > 6.00 | C[C@@H](NC(=O)c1ccc(=O)n(-c2cncc(-c3cnnn3C)c2)c1)c1cccc(C(F)(F)F)c1F [Example 1-24, N-[(1R)-1-[2-fluoro-3-(trifluoromethyl)phenyl]ethyl]-1-[5-(3-methyltriazol-4-yl)-3-pyridyl]-6-oxo-pyridine-3-carboxamide] | – | – | – |
| > 7.30 | 6.82 to 7.30 | > 6.00 | CCn1nncc1-c1cncc(-n2nc(C(=O)N[C@H](C)c3cccc(C(F)(F)F)c3F)cc(C)c2=O)c1 [Example 1-25, 1-[5-(3-ethyltriazol-4-yl)-3-pyridyl]-N-[(1R)-1-[2-fluoro-3-(trifluoromethyl)phenyl]ethyl]-5-methyl-6-oxo-pyridazine-3-carboxamide] | – | – | – |
| > 7.30 | > 7.30 | > 6.00 | Cc1cc(C(=O)N[C@H](C)c2cccc(C(F)(F)CO)c2F)nn(-c2cncc(-c3cnnn3C(C)C)c2)c1=O [Example 1-39, N-{(R)-1-[3-(1,1-difluoro-2-hydroxyethyl)-2-fluorophenyl]ethyl}-1-[5-(1-isopropyl-1H-1,2,3-triazol-5-yl)-3-pyridyl]-5-methyl-6-oxo-1,6-dihydropyridazine-3-carboxamide] | – | – | – |
| > 7.30 | > 7.30 | > 6.00 | Cc1cc(C(=O)N[C@H](C)c2cccc(C(F)(F)CO)c2F)nn(-c2cncc(-c3cnnn3C3CC3)c2)c1=O [Example 1-40, N-{(R)-1-[3-(1,1-difluoro-2-hydroxyethyl)-2-fluorophenyl]ethyl}-1-[5-(1-cyclopropyl-1H-1,2,3-triazol-5-yl)-3-pyridyl]-5-methyl-6-oxo-1,6-dihydropyridazine-3-carboxamide] | – | – | – |
| > 7.30 | > 7.30 | > 6.00 | CCc1cc(C(=O)N[C@H](C)c2cccc(C(F)(F)CO)c2F)nn(-c2cncc(-c3cnnn3C3CC3)c2)c1=O [Example 1-42, N-{(R)-1-[3-(1,1-difluoro-2-hydroxyethyl)-2-fluorophenyl]ethyl}-1-[5-(1-cyclopropyl-1H-1,2,3-triazol-5-yl)-3-pyridyl]-5-ethyl-6-oxo-1,6-dihydropyridazine-3-carboxamide] | – | – | – |
| > 7.30 | > 7.30 | > 6.00 | C[C@@H](NC(=O)c1ccc(=O)n(-c2cncc(-c3cnnn3C3CC3)c2)n1)c1cccc(C(F)(F)F)c1F [Example 1-50, N-[(1R)-1-[2-fluoro-3-(trifluoromethyl)phenyl]ethyl]-1-[5-(1-cyclopropyl-1H-1,2,3-triazol-5-yl)-3-pyridyl]-6-oxo-pyridazine-3-carboxamide] | – | – | – |
